Measurements published in patent US20230357099A1, “PYRAZOLO [3,4-B] PYRIDINE-4-CARBOXAMIDE NITRIFICATION INHIBITOR” (EUROCHEM ANTWERPTEN, priority 2020, published 2023).

Columns and labels:
[1] = test system: ABIL (ammonia-binding liquid inoculum), nitrifying microbial enrichment containing both AOA and AOB; experiment: Nitrification inhibition assay on ABIL (ammonium consumption); format: cell-based; conditions: 0% = as strong as 100 µM PTIO, 100% = no inhibition
[2] = test system: Nitrososphaera viennensis; experiment: Nitrification inhibition assay on Nitrososphaera viennensis (nitrite, Griess); format: cell-based, Nitrososphaera viennensis EN76T; conditions: 0% = as strong as 100 µM PTIO, 100% = no inhibition
Method in brief: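 N. viennensis EN76T cultures in FWM (pH 7.5, NH4Cl-supplemented), 5× concentrated, treated with compounds at 2.5 µM final (0.25% DMSO) and incubated 24 h at 42 °C. Nitrite measured by Griess absorbance at 540 nm against a standard curve. Relative nitrification normalized between DMSO (no compound) and 100 µM PTIO controls.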

agricultural soils = experiment: In soil nitrification inhibition assay; conditions: soil; for inhibition at 50 µM: 50 µM of each compound; for inhibition at 100 µM: 100 µM of each compound
Method: Top layer (0 to 10 cm) soil samples were collected from different fields in Belgium (Merelbeke, Sint-Laureins and Moorslede). Vegetation was removed and samples were taken from different plots. All soil samples were mixed and sieved (mesh size 2.8 mm) to filter large debris and homogenize soil. The soil was stored at 5° C. in plastic containers covered with Saran foil to prevent changes in microbial community composition and to maintain the original soil water content.
Soil water content was determined by drying 20 g soil for ≥ 48 h in a 60° C. oven and measuring weight before and after drying. Based on the soil water content (± 20%), compound solutions were prepared so that addition of 200 µl compound and 200 µl NH4Cl solution would result in a final compound concentration of 50 µM (unless otherwise stated) and a final NH4+ concentration of 10 mM. Per treatment, 5 small pots were filled with 20 g soil. Next, the soil was treated first with the respective compound solution and then with the NH4Cl solution. Per tray, positive (50 µM DMP) and negative controls (DMSO) were included. […] Demineralized water was added to the soil every 2 to 3 days to a soil weight of 20 g. In the end, each sample of 20 g soil was dissolved in 100 ml 1 M KCI and shaken for 1 hour, followed by filtration through Whatmann® paper. The filtrate was used to measure pH, NH4+ and NO3— concentrations. The nitrification percentage was calculated as the ratio of the consumed ammonium in treated soil versus the consumed ammonium in non-treated soil; the nitrification inhibition percentage was calculated as ‘100% - the nitrification percentage’.

## CC(C)c1cc(C(=O)N2CCSCC2)c2cnn(C(C)C)c2n1 [Example 2]
[1]; 2 µM compound
  ABIL - relative nitrification (%) at 2 µM: 66%
[1]; 24 h, 10 µM compound, 24 h, read-out: ABIL - relative nitrification (%) at 10 µM
  activity at 10 µM: -31%
[2]; 0.5 µM compound
  N. viennensis - relative nitrification (%) at 0.5 µM: 100%
[2]; 5 µM compound
  N. viennensis - relative nitrification (%) at 5 µM: 75%
[2]; 25 µM compound
  N. viennensis - relative nitrification (%) at 25 µM: 0%
Agricultural soils; 72 h, Soil 2, 3 days
  inhibition at 50 µM: 4%
Agricultural soils; 72 h, Soil 3, 3 days
  inhibition at 50 µM: 5%
Agricultural soils; 168 h, Soil 1, 7 days
  inhibition at 50 µM: 0%
Agricultural soils; 168 h, Soil 2, 7 days
  inhibition at 50 µM: 15%
Agricultural soils; 168 h, Soil 2, 7 days, 6 inhibitors alone and combined with Example 2
  inhibition at 100 µM: 0%
Agricultural soils; 168 h, Soil 2, 7 days, double and triple combinations
  inhibition at 100 µM: 0%
Agricultural soils; 168 h, Soil 3, 7 days
  inhibition at 50 µM: 0%
